Entries after “also recorded” stand apart in the source; their conditions may differ.
How the values were obtained:
[1] = test system: zebrafish intersegmental vessels; assay: Quantification of intersegmental vessel number in zebrafish; format: in vivo; conditions: for inhibition of developmental angiogenesis of intersegmental vessels (number of intersegmental vessels): 10 μM, from 6 hpf; for dose-dependent inhibition of development of intersegmental vessels: decreasing doses 10, 7.5, 5 and/or 1 μM; for inhibition of the number of intersegmental vessels that develop: 5 μM
Method: […] Larvae were manually dechorionated, euthanised, and fixed in 4% PFA at 4° C. overnight before analysis. The larvae were then washed with PBS and transferred to depression slides for observation under epi-fluorescence in an Olympus SZX16 fluorescent microscope. The number of intersegmental vessels was counted and the average number was graphed for each drug.
Larvae were manually dechorionated, euthanised, and fixed in 4% PFA at 4° C. overnight before analysis. The larvae were then washed with PBS and transferred to depression slides for observation under epi-fluorescence in an Olympus SZX16 fluorescent microscope. The number of intersegmental vessels was counted and the average number was graphed for each drug.

[2] = test system: human SW480 colorectal cancer cells; assay: Proliferation / cell number of SW480 cells (crystal violet); format: cell-based; conditions: 10 μM, by 96 hours
Method: Cells were maintained in RPMI media supplemented with 10% foetal calf serum, penicillin (100 U/ml), streptomycin (100 μg/ml) and amphotericin B (4 μg/ml). A total of 5,000 cells were seeded per well in 96 well plates and left to incubate for 24 hours. The cells were washed in PBS and the media was replaced with solutions containing 10 μM of 5-fluorouracil (5FU), 4H, 11A or 11C. […] At each designated time point, the media was disposed and the cells washed with PBS. The cells were fixed with 1% glutaraldehyde for 20 minutes and then stained with crystal violet for 30 minutes. The plates were blotted and dried overnight. The cells were resuspended with 1% TritonX-100 and shaken for 15 minutes. The absorbance was read on a spectrophotometer at 550 nm.

[3] = test system: explants cultures of human colorectal cancers; assay: Angiogenic/inflammatory factor secretion from human colorectal tumour explants (ELISA, multiplex); format: cell-based; conditions: 10 μM, 72 hours; n=40 patients
Method: Human colorectal tumour samples were taken directly from the pathology laboratory after surgery once adequate material was taken for diagnostic testing. The tumour samples were washed and stored in DMSO/tumour conditioning media (TCM). The samples were snap-frozen in liquid nitrogen and stored at −80° C. until compound testing was performed. Prior to compound testing, the tumours were thawed and incubated in fresh TCM for 24 hours. The explants were then treated with 4H, 11A and 11C at […] concentrations for 72 hours. The TCM solutions were collected and stored at −20° C. and the remaining tumour explants were snap-frozen in liquid nitrogen and stored at −80° C. Proteins were extracted from the explants using a nuclear RIPA buffer containing PMSF, sodium orthovandate and protease inhibitors. The explants were homogenised in a PreCellys™ machine. The total protein contents were determined from the resulting lysates using the BCA assay™. […] The secretion of angiogenic cytokines was quantified using sandwich ELISA (DuoSet, R&D) for VEGF, ENA-78, MCP-1 and GROα and a multiplex assay (MSD) was used for the inflammatory cytokines: IL-13, TNF, IL-6 and IL-8. The secretion data were normalised according to the tumour sample's protein content.

[4] = test system: zebrafish hyaloid vasculature; assay: Quantification of primary hyaloid vasculature branch number in Tg(fli1:EGFP) zebrafish; format: in vivo; conditions: for inhibition of developmental angiogenesis of the hyaloid vasculature (number of primary hyaloid vessels): typically 10 μM or 5 μM, from 24 hpf, vs DMSO control
Method: (§1) All experiments were carried out under ethical approval granted by the UCD animal research ethics committee. Tg(fli1:EGFP) zebrafish were maintained according to standard procedures on a 14 hr light/10 hr dark cycle at 28° C. Embryos were obtained by natural spawning and developmental stages established by time and morphological criteria. […] Larvae were euthanised, and fixed in 4% PFA at 4° C. overnight before analysis.
Overall patterning of the vasculature (fin, gut and intersegmental vessels) was examined for abnormalities. Right lenses were dissected from the larvae and transferred to depression slides for observation under epi-fluorescence in the Olympus SZX16. Patterning of the hyaloid vessels on the treated larval lenses was compared to DMSO controls and the archetypal pattern previously described (Alvarez et al., 2007; Alvarez et al., 2009).
as §1, with “analysis. Lenses were dissected from the larvae and transferred to depression slides for observation under epi-fluorescence in the Olympus SZX16. Patterning of the hyaloid vessels on the treated larval lenses was compared to DMSO controls and the archetypal pattern previously described (Alvarez et al., 2007; Alvarez et al., 2009).” for “analysis.”

With Cc1ccc(N2C(=O)CC(NNC(=O)c3ccccc3)C2=O)c(C)c1 (stereo not shown) [Compound 4H, N′-[1-(2,4-dimethylphenyl)-2,5-dioxo-3-pyrrolidinyl]benzohydrazide] as the compound, how does the “inhibition of developmental angiogenesis of intersegmental vessels (number of intersegmental vessels)” value (from here on “inhibition … (number of intersegmental vessels)”) [1] read?
Its value is “significant inhibition; also recorded: inhibit developmental angiogenesis of zebrafish intersegmental vessels in a statistically significant manner”.

What about the “dose-dependent inhibition of development of intersegmental vessels” value [1] of the same compound?
The value was “dose-dependent effect”.

What about the “cell number compared to control” value [2] of the same compound?
The value was “did not significantly reduce cell number”.

What about the “levels of ENA-78 secreted” value [3] of the same compound?
The value was “significantly reduced”.

What about the “levels of GRO-α secreted” value [3] of the same compound?
The value was “significantly reduced”.

And the “levels of IL-6 secreted” value [3]?
The value was “significantly reduced”.

And the “levels of IL-8 secreted” value [3]?
The value was “significantly reduced”.

And the “levels of MCP-1 secreted” value [3]?
The value was “significantly reduced; also recorded: significant effects”.

What about the “levels of VEGF secreted” value [3] of the same compound?
Its value is “significantly reduced; also recorded: significant effects”.

For Oc1cccc(C=Cc2ccc3ccccc3n2)c1 [Compound 11B_CC2, 3-(2-Quinolin-2-yl-vinyl)-phenol], which “inhibition … (number of intersegmental vessels)” value [1] is on record?
Its value is “inhibit developmental angiogenesis of zebrafish intersegmental vessels in a statistically significant manner”.

What about the “inhibition of developmental angiogenesis of the hyaloid vasculature (number of primary hyaloid vessels)” value [4] of the same compound?
The value was “inhibit developmental angiogenesis of the zebrafish hyaloid vasculature in a statistically significant manner”.

What does the source list for O=C(C=Cc1ccc2c(c1)OCO2)NCc1cccnc1 [Compound 11C]?
inhibition of the number of intersegmental vessels that develop [1]: significant inhibition; inhibition of developmental angiogenesis of intersegmental vessels (number of intersegmental vessels) [1]: significant inhibition; also recorded: inhibit developmental angiogenesis of zebrafish intersegmental vessels in a statistically significant manner; dose-dependent inhibition of development of intersegmental vessels [1]: dose-dependent effect; inhibition of the number of primary hyaloid vessels that develop ([4]; 10 μM, n>20): significant inhibition; inhibition of developmental angiogenesis of the hyaloid vasculature (number of primary hyaloid vessels) [4]: inhibit developmental angiogenesis of the zebrafish hyaloid vasculature in a statistically significant manner; cell number compared to control [2]: did not significantly reduce cell number; levels of ENA-78 secreted [3]: significantly reduced; levels of GRO-α secreted [3]: significantly reduced; levels of IL-6 secreted [3]: significantly reduced; levels of IL-8 secreted [3]: significantly reduced; levels of MCP-1 secreted [3]: significantly reduced; also recorded: significant effects; levels of TNFα secreted [3]: significantly reduced; levels of VEGF secreted [3]: significant effects

With O=c1[nH]cc(F)c(=O)[nH]1 [5-fluorouracil, reference compound] as the compound, how does the “cell number, % of the control” value [2] read?
Its value is 60%.

With Oc1ccccc1/C=C\c1ccc2ccccc2n1 [Compound 11B_Z, (Z)-2-(2-(Quinolin-2-yl)vinyl) phenol] as the compound, how does the “inhibition … (number of intersegmental vessels)” value [1] read?
Its value is “inhibit developmental angiogenesis of zebrafish intersegmental vessels in a statistically significant manner”.

And the “inhibition of developmental angiogenesis of the hyaloid vasculature (number of primary hyaloid vessels)” value [4]?
The value was “inhibit developmental angiogenesis of the zebrafish hyaloid vasculature in a statistically significant manner”.

Which results are given for C/C(=C\c1ccccc1O)c1ccc2ccccc2n1 [Compound 11B_CC11, (E)-2-(2-Quinolin-2-yl-propenyl)-phenol]?
inhibition of developmental angiogenesis of intersegmental vessels (number of intersegmental vessels) [1]: inhibit developmental angiogenesis of zebrafish intersegmental vessels in a statistically significant manner; inhibition of developmental angiogenesis of the hyaloid vasculature (number of primary hyaloid vessels) [4]: inhibit developmental angiogenesis of the zebrafish hyaloid vasculature in a statistically significant manner

“(5-bromo-N′-[2-(trifluromethyl)benzylidene]-2-furohydrazide) [Compound 11A]” was tested. Which “inhibition of the number of intersegmental vessels that develop” value [1] did it give?
Its value is “significant inhibition”.

And the “inhibition … (number of intersegmental vessels)” value [1]?
Its value is “significant inhibition; also recorded: inhibit developmental angiogenesis of zebrafish intersegmental vessels in a statistically significant manner”.

What about the “dose-dependent inhibition of development of intersegmental vessels” value [1] of the same compound?
The value was “dose-dependent effect”.

And the “cell number compared to control” value [2]?
The value was “did not significantly reduce cell number”.

What about the “levels of ENA-78 secreted” value [3] of the same compound?
Its value is “significantly reduced”.

What about the “levels of GRO-α secreted” value [3] of the same compound?
The value was “significantly reduced”.

And the “levels of IL-1β secreted (printed IL-13, IL-1)” value [3]?
The value was “significantly reduced”.

And the “levels of IL-8 secreted” value [3]?
Its value is “significantly reduced”.

And the “levels of MCP-1 secreted” value [3]?
The value was “significantly reduced; also recorded: significant effects”.

And the “levels of TNFα secreted” value [3]?
The value was “significantly reduced”.

And the “levels of VEGF secreted” value [3]?
Its value is “significantly reduced; also recorded: significant effects”.

Reference: US9815788B2, “Anti-angiogenic compounds” (University College Dublin National University of Ireland, …, priority 2012, dated 2017)
